# Test results reported in BindingDB's records for doi:10.1021/cb900232a (Stanford University, 2010).
# Columns and labels:
# Experiment in all cases: Enzyme kinetic assay
# Procathepsin L = target: T1, Procathepsin L (Mus musculus, UniProt P06797); details: pH 6.25; 25 °C
# T1 sequence (P06797 whole entry): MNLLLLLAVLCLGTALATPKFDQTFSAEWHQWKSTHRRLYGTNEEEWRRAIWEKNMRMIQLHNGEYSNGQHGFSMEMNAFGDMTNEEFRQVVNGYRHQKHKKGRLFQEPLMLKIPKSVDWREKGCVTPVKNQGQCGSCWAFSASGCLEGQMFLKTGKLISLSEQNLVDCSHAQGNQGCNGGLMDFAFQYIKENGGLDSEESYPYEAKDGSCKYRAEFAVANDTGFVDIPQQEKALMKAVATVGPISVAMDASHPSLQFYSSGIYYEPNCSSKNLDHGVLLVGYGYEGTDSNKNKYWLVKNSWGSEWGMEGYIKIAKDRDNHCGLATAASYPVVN
# Experimental: (§1) IC50 measurements and enzyme kinetics assays were performed on a Spectramax M5 fluorescent plate reader (Molecular Devices).
# Cathepsin B = Cathepsin B (Mus musculus, UniProt P10605); details: pH 6.25; 25 °C
# Cathepsin B, sequence (P10605 whole entry): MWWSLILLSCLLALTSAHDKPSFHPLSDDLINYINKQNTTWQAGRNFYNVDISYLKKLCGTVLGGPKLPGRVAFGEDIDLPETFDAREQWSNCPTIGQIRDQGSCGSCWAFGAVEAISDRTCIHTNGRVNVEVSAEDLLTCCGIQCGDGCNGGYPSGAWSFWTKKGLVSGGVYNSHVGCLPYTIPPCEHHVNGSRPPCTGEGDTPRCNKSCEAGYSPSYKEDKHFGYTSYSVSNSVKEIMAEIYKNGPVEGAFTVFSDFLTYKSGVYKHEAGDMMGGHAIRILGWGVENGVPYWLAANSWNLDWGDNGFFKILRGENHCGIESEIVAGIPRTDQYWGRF
# Experimental: as §1
# Legumain = target: T2, Legumain (Mus musculus, UniProt O89017); details: pH 5.8; 25 °C
# T2 sequence (O89017 whole entry): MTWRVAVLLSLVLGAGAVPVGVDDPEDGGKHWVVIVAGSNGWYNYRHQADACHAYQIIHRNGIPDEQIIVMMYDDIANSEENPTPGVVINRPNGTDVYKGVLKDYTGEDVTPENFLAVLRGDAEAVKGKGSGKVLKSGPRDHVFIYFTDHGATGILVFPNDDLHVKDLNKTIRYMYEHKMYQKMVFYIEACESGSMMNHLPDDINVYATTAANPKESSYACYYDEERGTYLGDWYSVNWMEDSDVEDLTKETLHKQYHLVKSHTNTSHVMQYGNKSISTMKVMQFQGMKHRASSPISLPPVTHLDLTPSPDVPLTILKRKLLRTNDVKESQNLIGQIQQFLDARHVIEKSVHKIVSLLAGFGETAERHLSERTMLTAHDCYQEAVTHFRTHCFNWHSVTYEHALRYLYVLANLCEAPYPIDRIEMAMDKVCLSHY
# Experimental: as §1
# Caspase-3 = target: T3, Caspase-3 (Mus musculus, UniProt P70677); details: pH 7.4; 25 °C
# T3 sequence (P70677 whole entry): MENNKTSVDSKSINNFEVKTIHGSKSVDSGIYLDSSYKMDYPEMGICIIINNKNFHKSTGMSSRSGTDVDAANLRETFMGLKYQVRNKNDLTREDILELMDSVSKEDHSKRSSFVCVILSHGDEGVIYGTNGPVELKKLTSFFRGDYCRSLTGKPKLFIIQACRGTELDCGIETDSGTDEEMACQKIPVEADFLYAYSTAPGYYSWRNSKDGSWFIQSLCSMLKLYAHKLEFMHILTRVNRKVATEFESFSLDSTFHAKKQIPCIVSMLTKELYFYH
# Experimental: as §1
Compound,IC50 (Procathepsin L),IC50 (Cathepsin B),IC50 (Legumain),IC50 (Caspase-3)
CCOC(=O)[C@H]1O[C@@H]1C(=O)N[C@H](C(=O)NCCc1ccc(O)cc1)C(C)CC (stereo partly specified) [CID644294],2.98 µM,0.78 µM,,
CCOC(=O)[C@H]1O[C@@H]1C(=O)N(CC(N)=O)NC(=O)[C@@H]1CCCN1C(C)=O [LI-1],220 µM,390 µM,0.0115 µM,890 µM
